According to patent publication US20050038058A1, “Novel compounds and methods for therapy” (Institute of Organic Chemistry and Biochemistry, priority 2001, published 2005):
Converted amounts (≈) assume the structure as drawn.

How the values were obtained:
CEM cells = assay: Inhibition of CEM cell growth (cytostatic activity); assay type: cell-based
Outline: (§1)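 MT-4 cells (5×10^4/well) exposed to compound dilutions for 5 days at 37 °C; CC50 = concentration cutting living cells by 50%, counted microscopically with trypan blue exclusion. CEM cytostatic CC50 defined likewise, by a previously described method.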

MT-4 cells = assay: MT-4 cell toxicity (trypan blue exclusion); assay type: cell-based; conditions: reduction of cell viability; Table 2
Outline: as §1

PBL = assay: Cell viability in PBL; assay type: cell-based; conditions: reduction of cell viability; Table 2
[1] = tested on: monocyte/macrophages (M/M); assay: Cell viability in monocyte/macrophages (M/M); assay type: cell-based, human; conditions: reduction of cell viability; Table 2
CrFK cells = assay: Toxicity in CrFK cells; assay type: cell-based, feline; conditions: Table 2
HIV-1/L1S = assay type: cell-based; conditions: measured against the laboratory HIV-1/IIIB strain in CEM cell cultures
Text: (§2) Viruses. The origins of MSV, HIV type 1 (HIV-1) (strain IIIB and Ba-L), HIV-2 (strain ROD) and FIV (strain Petaluma) have been described previously (Balzarini et al., AIDS 5: 21-28, 1991; De Clercq et al., Proc. Soc. Exp. Biol. Med. 137:590-594, 1971; Egberink et al., Proc. Natl. Acad. Sci. 87:3087-3091, 1990; Hartmann et al., Antiviral Chem. Chemother. 5:13-19, 1994; Popovic et al., Science 224:497-500, 1984). HIV-1(IIIB) and HIV-2(ROD) stocks were obtained from supernatants of virus-infected MT-4 cell cultures. HIV-1BaL was expanded in human primary M/M, whose supernatants were collected, filtered and stored at −80° C. before use. Characteristics of viral stocks used for this study were 2.1×10^8 HIV-RNA genomes/ml (corresponding to 35 ng of p24 antigen) and 5,000 tissue culture infectious doses 50% per ml (TCID50/ml) as assessed by virus titration in other primary M/M cultures. The isolation and characterization of the clinical HIV-1 isolates L1S, L6S and L6S/PMEA has been reported (Thormar et al., Proc. Natl. Acad. Sci. USA 93:3283-3287, 1995; Van Laethem et al., AIDS 15:553-561, 2001). […] HIV-1/L6S/PMEA is the clinical isolate HIV-1/L6S that has been isolated after culturing the virus for 11 passages in the presence of increasing concentrations of PMEA (adefovir).
(§3) In vitro antiviral assays. The activity against HIV-1- and HIV-2-induced cytopathicity was examined in MT-4 cell cultures at day 5 post infection and based on the determination of cell viability by trypan blue dye staining or in CEM cell cultures at day 4 to 5 post infection and based on the microscopical examination of virus-induced giant cell formation. HIV-1 and HIV-2 were added at 100 CCID50 to the cell cultures.

HIV-1/L6S/PMEA = assay type: cell-based; conditions: measured against the laboratory HIV-1/IIIB strain in CEM cell cultures
Text: as §2, §3

HIV-1/L6S = assay type: cell-based; conditions: measured against the laboratory HIV-1/IIIB strain in CEM cell cultures
Text: as §2, §3

HIV = assay: Anti-HIV activity across HIV-1 and HIV-2 in CEM and MT-4 cell cultures; assay type: cell-based; conditions: HIV-1 and HIV-2 in CEM and MT-4 cells; for EC50: Human immunodeficiency virus 1, MT4, read-out: EC50 values for HIV (range over virus/cell systems)
Description: as §3

Cell viability in PBL = assay type: cell-based; conditions: human, reduction of cell viability, Table 2
[2] = Cell viability in monocyte/macrophages (M/M); assay type: cell-based, human; conditions: human
HSV-1 (KOS) = assay: Antiviral activity, HSV-1 (KOS), Table 1a; assay type: cell-based
HSV-2 (G) = assay: Antiviral activity, HSV-2 (G), Table 1a; assay type: cell-based
HSV-1 TK- VMW 1837 = assay: Antiviral activity, HSV-1 TK- VMW 1837, Table 1a; assay type: cell-based
CMV AD-169 = assay: Antiviral activity, CMV AD-169, Table 1a; assay type: cell-based
CMV Davis = assay: Antiviral activity, CMV Davis, Table 1a; assay type: cell-based
VZV TK + OKA = assay: Antiviral activity, VZV TK+ OKA, Table 1a; assay type: cell-based
VZV TK + YS = assay: Antiviral activity, VZV TK+ YS, Table 1a; assay type: cell-based
VZV TK − 07/1 = assay: Antiviral activity, VZV TK- 07/1, Table 1a; assay type: cell-based
VZV TK − YS/R = assay: Antiviral activity, VZV TK- YS/R, Table 1a; assay type: cell-based
MSV = assay: Antiviral activity, MSV, Table 1a; assay type: cell-based
HIV-2 = assay: Antiviral activity, HIV-2, Table 1a; assay type: cell-based
[3] = 50% cytostatic concentration, CEM cell proliferation, Table 1
[4] = inhibition of cell proliferation, Table 2

Row | SMILES | CC50 (CEM) (CEM cells; [3]) | CC50 (CEM) (CEM cells; [4]) | CC50 MT-4 (MT-4 cells) | CC50 PBL (PBL) | CC50 M/M [1] | CC50 CrFK (CrFK cells) | -Fold Resistance HIV-1/L1S (HIV-1/L1S) | -Fold Resistance HIV-1/L6S/PMEA (HIV-1/L6S/PMEA) | -Fold Resistance HIV-1/L6S (HIV-1/L6S) | EC50 (HIV) | further results
1 | C[C@H](Cn1cnc2c(N)ncnc21)OCP(=O)(O)O [(R)-PMPA, (R)-9-[(2-phosphonomethoxy)-propyl]adenine, reference compound] | 125 µg/mL (≈ 435 µM) | 125 ± 26 µg/mL (≈ 435 µM) | 72 ± 12 µg/mL (≈ 251 µM) | >100 µg/mL | >100 µg/mL | >100 µg/mL | 2.3 fold | 54 fold | 11 fold | – | EC50 values for HIV (range over virus/cell systems) (HIV): 0.36 to 0.52 µg/mL
2 | Nc1cc(OCCOCP(=O)(O)O)nc(N)n1 [Compound 1, 2,4-diamino-6-[2-(phosphonomethoxy)ethoxy]pyrimidine] | – | – | – | – | – | – | 0.8 fold | 3.6 fold | 1.5 fold | 0.29 to 0.8 µg/mL (≈ 1.1 to 3.03 µM) | CC50 (Cell viability in PBL; PHA-stimulated peripheral blood mononuclear cells (PBL)): 2.2 ± 0.8 µg/mL (≈ 8.33 µM); CC50 [2]: > 100 µg/mL
3 | Nc1cc(SCCOCP(=O)(O)O)nc(N)n1 [Compound 2, 2,4-diamino-6-{[2-(phosphonomethoxy)ethyl]-sulfanyl}pyrimidine] | – | – | – | – | – | – | 2.1 fold | 14 fold | 1.4 fold | – | –
4 | C[C@H](COc1cc(N)nc(N)n1)OCP(=O)(O)O [Compound 11, 2,4-diamino-6-(R)-[2-(phosphonomethoxy)propoxy]pyrimidine] | 62 µg/mL (≈ 223 µM) | 62 ± 25 µg/mL (≈ 223 µM) | ≧100 μg/ml | 9.6 ± 2.5 µg/mL (≈ 34.5 µM) | >100 µg/mL | >100 µg/mL | 1.9 fold | 30 fold | 3.5 fold | – | Antiviral Activity EC50 HSV-1 (KOS) (HSV-1 (KOS)): 16 µg/mL; Antiviral Activity EC50 HSV-2 (G) (HSV-2 (G)): 48 µg/mL; Antiviral Activity EC50 HSV-1 TK- VMW 1837 (HSV-1 TK- VMW 1837): 9.6 µg/mL; Antiviral Activity EC50 CMV AD-169 (CMV AD-169): >50 µg/mL; Antiviral Activity EC50 CMV Davis (CMV Davis): >50 µg/mL; Antiviral Activity EC50 VZV TK + OKA (VZV TK + OKA): 3.8 µg/mL; Antiviral Activity EC50 VZV TK + YS (VZV TK + YS): 5.9 µg/mL; Antiviral Activity EC50 VZV TK − 07/1 (VZV TK − 07/1): 6.3 µg/mL; Antiviral Activity EC50 VZV TK − YS/R (VZV TK − YS/R): 5.7 µg/mL; Antiviral Activity EC50 MSV (MSV): 0.05 µg/mL; Antiviral Activity EC50 HIV-2 (HIV-2): 1.3 µg/mL; CC50 for CEM cells (CEM cells): around 60 μg/mL; Antiviral Activity EC50 HIV-1 (HIV-1): 1.9 µg/mL
5 | Nc1ncnc2c1ncn2CCOCP(=O)(O)O [PMEA, 9-[(2-phosphono-methoxy)ethyl]adenine, reference compound] | – | – | – | – | – | – | 2.0 fold | 7.3 fold | 2.7 fold | 0.96 to 2 µg/mL (≈ 3.51 to 7.32 µM) | CC50 (Cell viability in PBL): 1.7 ± 0.4 µg/mL (≈ 6.22 µM); CC50 ([2]; reduction of cell viability, Table 2, read-out: CC50 M/M): > 100 µg/mL
